Measurements reported in patent US20230346995A1, “USE OF ELECTRIC CURRENT OR FIELD TO MANAGE RISK OF INFECTION BY ANTIMICROBIAL-RESISTANT MICROORGANISMS” (THE TRUSTEES OF INDIANA UNIVERSITY, priority 2020, published 2023).

Columns and labels:
Format in all cases: cell-based
[1] = test system: ketoconazole-resistant Candida albicans ATCC 64124; experiment: Semi-quantitative analysis of cell wall carbohydrates chitin, beta glucan, mannan; details: 24 h treatment
Description: Semi-quantitative analysis was performed for cell wall carbohydrates chitin, beta glucan, and mannan. After 24 h treatment, with dressings alone or in combination with ketoconazole, 1 ml yeast cells were washed once with 1 ml 1X PBS followed by chitin staining with Calcofluor White (Sigma Aldrich) (25 μg/ml) for 10 min; beta glucan staining with Aniline Blue (Anaspec) (0.05%) for 15 min; mannan staining with Concanavalin A-Texas Red conjugate (Life Technologies) (25 μg/ml) for 40 min. All stainings were performed under dark condition. Post-staining, cells were washed once with 1 ml 1X PBS and observed under 63X magnification. Microscopic images were used for measuring fluorescence intensities using ZEN blue software.

[2] = test system: ketoconazole-resistant Candida albicans ATCC 64124; experiment: Ultrastructure analysis (TEM) for cell wall thickness; details: after 24 h; compared to control cells
Description: Ultrastructure analysis was performed as follows. After 24 h of respective treatments in YPD broth, C. albicans cells were initially fixed overnight with 500 μl 3% glutaraldehyde/0.1 M phosphate buffer; the fixative was changed to same fixative with 0.15% tannic acid for one hour. After three rinses in buffer, the specimens were post-fixed with 1% osmium tetroxide/0.1 M phosphate buffer for one hour and then rinsed multiple times with distilled water, before en bloc staining with 1% uranyl acetate in distilled water for one hour. After multiple rinses in distilled water, standard dehydration followed through a range of 70-100% ethanol, then infiltration with acetone, to 50:50 acetone and embedding resin for 48 hours. Specimens were then embedded with 100% resin (Embed 812, Electron Microscopy Sciences, Hatfield, PA) and polymerized overnight. Sections were cut, 80-85 nm and placed on copper mesh grids and viewed on Transmission Electron Microscope (TEM) (ThermoFisher, Tecnai Spirit, Hillsoboro OR) and images taken with CCD camera (Advanced Microscopy Techniques Danvers MA). Analysis of cell wall thickness was done with TEM images using ImageJ software.

[3] = test system: ketoconazole-resistant Candida albicans ATCC 64124; experiment: Agar lawn assay with embedded dressings; details: in words
Description: (§1) An agar lawn assay assessed fungicidal activity. Dressings (2′×2′) were moistened with sterile YPD broth and placed in empty Petri plates with the conducting side of the dressing facing up. One milliliter of log phase C. albicans cells (1×10^8 cells) was thoroughly mixed in sterile molten YPD agar (9 ml) and poured evenly in plates with dressings. […] Plate images were captured and the area of growth inhibition in these plates was calculated with ImageJ software. Metabolic state was assessed by FUN1 staining. […] Post treatments with electroceutical dressings, an aliquot of yeast cells (1×10^8) was taken and washed with 1 ml of 1X PBS followed by treatment with 100 μl FUN®1 (1:1000; freshly diluted in 1X PBS) for 40 min in dark condition. Cells were then washed once with 1 ml of 1X PBS followed by counter staining with 100 μl Calcofluor White (25 μg/ml) for 10 min in dark conditions. Post counter staining cells were again washed with 1 ml 1X PBS, an aliquot of cells was trapped between a cover glass and glass slide and observed at 63X. Images captured at this magnification were analyzed using ZEN blue software to calculate the ratio of red and green fluorescence intensities for two regions of interest (ROI) per image (10 ROIs per group per technical replicate). Three technical replicates were assayed for each experimental group; six biological replicates.

[4] = test system: ketoconazole-resistant Candida albicans ATCC 64124; experiment: Cell membrane potential changes, DiBAC4(3)/PI staining, flow cytometry; details: in words; flow cytometry and microscopy
Description: Cell membrane potential changes were assessed by DiBAC4(3) staining. Candida albicans cells were cultured in liquid media (YPD broth), with or without dressings or ketoconazole. At respective time intervals, an aliquot of cells (1×10^8) was taken and washed with 1 ml 1X PBS followed by treatment with either 200 μl 10 μM DiBAC4(3) [Bis-(1,3-dibutylbarbituric acid) trimethine oxonol] (Anaspec) [for DiBAC4(3) single stained controls] or 10 μM propidium iodide (Sigma Aldrich) [for PI single stained controls] or a combination of both stains. Heat-killed cells (1×10^8; treated at 100° C. for 30 min) and cells treated with Amphotericin B (3 μg/ml) (Sigma
Aldrich) for 6 h were used as controls for dual stain positive and DiBAC4(3) only positive cells, respectively.
Post staining, cells were washed with 1XPBS followed by flow cytometry (with FL1-FITC for DiBAC4(3) and FL2-PE filter for PI) (10,000 events per sample) to assess dual stain positive cells in control and test samples. For flow cytometry, control and treated cells stained only with single fluorescent stains were also run separately to check individual staining patterns. Flow cytometry data were analyzed using FlowJo software and graphically represented. Scatter plots with ratio of fluorescence intensities through FL1-FITC filter and FL2-PE filter were plotted to understand cell membrane depolarization mechanism in treated cells. […]

[5] = test system: ketoconazole-resistant Candida albicans ATCC 64124; experiment: In vitro yeast to hyphae transition assay; details: after 2 h incubation in hyphae-inducing medium
Description: Transition of C. albicans from yeast form to hyphal form was studied with hyphae inducing conditions (YPD broth with 10% fetal bovine serum and incubation at 37° C., static condition). Cells were cultured in 5 ml hyphae-inducing medium, with or without dressings or ketoconazole. An aliquot of cells (1 ml) was taken from all treatment groups at 6 h and 24 h. Hyphal induction and elongation was monitored microscopically (63X) and imaged at 6 h and 24 h. For hyphal length measurements, aliquots were taken after 2 h in hyphae-inducing medium and images were captured at 20X magnification. Hyphal lengths were measured from these images using Accuview software (50 measurements per experimental group, six biological replicates).

[6] = test system: ketoconazole-resistant Candida albicans ATCC 64124; experiment: Efflux pump activity by Nile Red accumulation assay; details: within 30 min to 3 h of treatment; flow cytometry
Description: Three technical replicates were assayed for each experimental group; six biological replicates.

[7] = test system: ketoconazole-resistant Candida albicans ATCC 64124; experiment: Planktonic growth, absorbance at 600 nm; details: YPD broth; ketoconazole 100 μg/ml; versus control
Description: ATCC strain 64124 was maintained at 4° C. on yeast extract peptone dextrose (YPD) (BD™ Difco™) agar plates. Planktonic yeast cultures (seed inoculums) were initiated in 5 ml of YPD broth (BD™ Difco™) from a single colony of the yeast strain. Cells were incubated at 28° C., under shaker conditions (200 rpm) for 24 h, followed by initiation of master inoculums for respective experiments in 5 ml YPD broth (OD600nm ˜0.15). Yeast cells were incubated at 27° C. for all assays, except for hyphal transition experiments. For all assays, ketoconazole (Sigma Aldrich) was used at a final concentration of 100 μg/ml (dissolved in 100% methanol, stored at −20° C.).
The FDA-approved wireless electroceutical dressing (WED) Procellera (Ag—Zn dressing) (Vomaris Innovations Inc.) was the source of electric fields for treating C. albicans cells. This dressing has alternating circular regions of silver and zinc dots placed in proximity of 1 mm to each other generating electric fields in the range of 0.6-0.9 V (Banerjee et al., 2014; Banerjee et al., 2015). […] The effect of wound dressings on planktonic growth was assessed by culturing C. albicans in sterile 15 ml round bottom polypropylene tubes with 5 ml YPD broth in the presence of dressings. […] Post incubation for respective time intervals, 1 ml aliquots were taken from all groups and optical density (absorbance) was measured on a spectrophotometer at 600 nm.

[8] = test system: ketoconazole-resistant Candida albicans ATCC 64124; experiment: Metabolic state by FUN1 staining; details: in words
Description: as §1

CC(=O)N1CCN(c2ccc(OCC3COC(Cn4ccnc4)(c4ccc(Cl)cc4Cl)O3)cc2)CC1 (centres unmarked) [ketoconazole]
chitin content (Calcofluor white staining) [1]: increased chitin staining profile
change in cell wall thickness [2]: thick cell walls
yeast growth in agar lawn assay [3]: reduction in growth
effect on cell membrane depolarization / damage [4]: did not have any acute or prolonged effect
hyphal length measurements [5]: pseudohyphae formed
Nile red accumulation / efflux pump activity [6]: increased efflux pump activity
planktonic growth measured by absorbance at 600 nm [7]: almost equivalent
FUN1 staining outcome (metabolic state, plasma membrane integrity) [8]: distinct intravacuolar structures
